# Experimental data published in article PMC10709440, “High-throughput ligand profile characterization in novel cell lines expressing seven heterologous insect olfactory receptors for the detection of volatile plant biomarkers” (Scientific Reports, 2023).
# Where two headings read alike, the source gives them in different places.
# Legend:
# Drosophila OR13a = biological target: T1, Drosophila OR13a (Drosophila melanogaster, UniProt Q9VXL0); assay: Calcium ion fluorescence (GCaMP6) assay, OR13a stable HEK293 cell line; assay type: cell-based
# T1 construct: expressed in transfected cells
# T1 sequence (Q9VXL0 1-418): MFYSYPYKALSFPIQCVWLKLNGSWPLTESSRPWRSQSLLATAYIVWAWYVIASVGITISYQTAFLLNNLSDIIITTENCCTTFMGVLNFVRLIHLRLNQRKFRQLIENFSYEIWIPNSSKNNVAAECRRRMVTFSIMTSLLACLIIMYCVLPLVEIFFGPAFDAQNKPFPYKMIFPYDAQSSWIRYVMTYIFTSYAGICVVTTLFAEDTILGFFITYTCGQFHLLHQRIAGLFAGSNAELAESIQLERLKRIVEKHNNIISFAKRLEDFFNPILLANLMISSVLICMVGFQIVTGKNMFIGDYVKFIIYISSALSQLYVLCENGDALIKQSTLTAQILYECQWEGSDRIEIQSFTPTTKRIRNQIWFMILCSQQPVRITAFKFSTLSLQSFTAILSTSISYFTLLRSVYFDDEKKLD
# T1 sequence (Q9VNB5 1-486 partner): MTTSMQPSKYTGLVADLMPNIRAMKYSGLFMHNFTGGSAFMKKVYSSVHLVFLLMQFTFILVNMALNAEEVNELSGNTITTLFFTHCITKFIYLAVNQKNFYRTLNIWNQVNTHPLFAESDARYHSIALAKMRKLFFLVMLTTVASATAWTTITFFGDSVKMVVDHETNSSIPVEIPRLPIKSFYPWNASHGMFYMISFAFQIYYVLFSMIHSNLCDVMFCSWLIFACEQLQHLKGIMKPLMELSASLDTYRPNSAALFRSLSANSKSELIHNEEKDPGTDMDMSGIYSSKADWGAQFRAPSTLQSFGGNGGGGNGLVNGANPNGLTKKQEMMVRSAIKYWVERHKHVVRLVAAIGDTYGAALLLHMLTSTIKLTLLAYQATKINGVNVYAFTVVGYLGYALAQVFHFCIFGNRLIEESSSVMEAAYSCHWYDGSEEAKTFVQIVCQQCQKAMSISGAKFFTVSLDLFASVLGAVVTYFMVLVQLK
# Outline: (§1)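 Responses are VUAA1-normalized ΔF: each VOC-evoked calcium signal, (FMAX−F0)/F0 over 30 s after injection, divided by the same line's mean 50 µM VUAA1 response. Cells were doxycycline-induced HEK293 with GCaMP6 and the cognate Drosophila OR, in HEPES buffer pH 7.3; ligands tested 0.01–100 μM.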
# Drosophila OR10a = biological target: T2, Drosophila OR10a (Drosophila melanogaster, UniProt Q9VYZ1); assay: Calcium ion fluorescence (GCaMP6) assay, OR10a stable HEK293 cell line; assay type: cell-based
# T2 construct: expressed in transfected cells
# T2 sequence (Q9VYZ1 1-406): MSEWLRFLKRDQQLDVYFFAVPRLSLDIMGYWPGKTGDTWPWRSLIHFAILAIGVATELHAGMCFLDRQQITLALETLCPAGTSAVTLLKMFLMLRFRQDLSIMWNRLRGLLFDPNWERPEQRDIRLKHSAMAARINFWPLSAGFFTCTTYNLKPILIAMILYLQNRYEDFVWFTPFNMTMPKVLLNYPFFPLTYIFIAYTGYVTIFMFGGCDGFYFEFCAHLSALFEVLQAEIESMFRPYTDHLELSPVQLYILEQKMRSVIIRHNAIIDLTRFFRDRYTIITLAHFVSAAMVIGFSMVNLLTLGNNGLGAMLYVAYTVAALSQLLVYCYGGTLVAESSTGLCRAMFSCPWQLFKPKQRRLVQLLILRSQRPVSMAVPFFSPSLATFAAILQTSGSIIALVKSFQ
# T2 sequence (Q9VNB5 1-486 partner): T1 sequence (Q9VNB5 1-486 partner)
# Outline: as §1
# [1] = HEK293, read-out: OR13a Average response (VUAA1-normalized), 1 μM VOC, 50 μM VUAA1 = 1, responses not exceeding 0.05 considered 0
# [2] = HEK293, read-out: OR13a Average response (VUAA1-normalized), 10 μM VOC, 50 μM VUAA1 = 1, responses not exceeding 0.05 considered 0
# [3] = HEK293, read-out: OR13a Average response (VUAA1-normalized), 100 μM VOC, 50 μM VUAA1 = 1, responses not exceeding 0.05 considered 0
# [4] = concentration 1, normalized fluorescence change, values below 0.05 threshold given as 0
# [5] = concentration 10, normalized fluorescence change, values below 0.05 threshold given as 0
# [6] = concentration 100, normalized fluorescence change, values below 0.05 threshold given as 0
# [7] = HEK293, read-out: OR10a Average response (VUAA1-normalized), 1 μM VOC, 50 μM VUAA1 = 1, responses not exceeding 0.05 considered 0
# [8] = HEK293, read-out: OR10a Average response (VUAA1-normalized), 10 μM VOC, 50 μM VUAA1 = 1, responses not exceeding 0.05 considered 0
# [9] = HEK293, read-out: OR10a Average response (VUAA1-normalized), 100 μM VOC, 50 μM VUAA1 = 1, responses not exceeding 0.05 considered 0
# [10] = 1 μM VOC, 50 μM VUAA1 = 1, responses not exceeding 0.05 considered 0
# [11] = 10 μM VOC, 50 μM VUAA1 = 1, responses not exceeding 0.05 considered 0
# [12] = 100 μM VOC, 50 μM VUAA1 = 1, responses not exceeding 0.05 considered 0
# [13] = ligand concentration 1 (unit not given), threshold 0.05, below shown as 0
# [14] = ligand concentration 10 (unit not given), threshold 0.05, below shown as 0
# [15] = ligand concentration 100 (unit not given), threshold 0.05, below shown as 0
smiles,measurement,setting,value
CC1=CCC2C(C1)C2(C)C (stereo not drawn) [3-carene],activation at 1 µM,Drosophila OR13a; [1],0%
same,activation at 10 µM,Drosophila OR13a; [2],0%
same,activation at 100 µM,Drosophila OR13a; [3],0%
same,activation at 1 µM,"Drosophila OR13a; HEK293, read-out: OR13a response (VUAA1-normalized response), VOC concentration 1 μM",0%
same,activation at 10 µM,"Drosophila OR13a; HEK293, read-out: OR13a response (VUAA1-normalized response), VOC concentration 10 μM",0%
same,activation at 100 µM,"Drosophila OR13a; HEK293, read-out: OR13a response (VUAA1-normalized response), VOC concentration 100 μM",0%
same,DF norm AVERAGE OR13a,Drosophila OR13a; [4],0
same,DF norm AVERAGE OR13a,Drosophila OR13a; [5],0
same,DF norm AVERAGE OR13a,Drosophila OR13a; [6],0
same,activation at 1 µM,Drosophila OR10a; [7],7%
same,activation at 10 µM,Drosophila OR10a; [8],0%
same,activation at 100 µM,Drosophila OR10a; [9],0%
same,activation at 1 µM,"Drosophila OR10a; HEK293, read-out: OR10a response (VUAA1-normalized response), VOC concentration 1 μM",7%
same,activation at 10 µM,"Drosophila OR10a; HEK293, read-out: OR10a response (VUAA1-normalized response), VOC concentration 10 μM",0%
same,activation at 100 µM,"Drosophila OR10a; HEK293, read-out: OR10a response (VUAA1-normalized response), VOC concentration 100 μM",0%
same,DF norm AVERAGE OR10a,Drosophila OR10a; [4],0.0692
same,DF norm AVERAGE OR10a,Drosophila OR10a; [5],0
same,DF norm AVERAGE OR10a,Drosophila OR10a; [6],0
"CC(C)=CCC/C(C)=C/CC/C(C)=C/CO [e,e-farnesol]",OR13a Average response (VUAA1-normalized),Drosophila OR13a; [10],0.00
same,OR13a Average response (VUAA1-normalized),Drosophila OR13a; [11],0.033
same,OR13a Average response (VUAA1-normalized),Drosophila OR13a; [12],0.026
same,OR13a response (VUAA1-normalized response),Drosophila OR13a; VOC concentration 1 μM,0.00
same,OR13a response (VUAA1-normalized response),Drosophila OR13a; VOC concentration 10 μM,0.00
same,OR13a response (VUAA1-normalized response),Drosophila OR13a; VOC concentration 100 μM,0.00
same,DF norm AVERAGE OR13a,Drosophila OR13a; [13],0
same,DF norm AVERAGE OR13a,Drosophila OR13a; [14],0
same,DF norm AVERAGE OR13a,Drosophila OR13a; [15],0
same,OR10a Average response (VUAA1-normalized),Drosophila OR10a; [10],0.034
same,OR10a Average response (VUAA1-normalized),Drosophila OR10a; [11],0.0633
same,OR10a Average response (VUAA1-normalized),Drosophila OR10a; [12],0.0174
same,OR10a response (VUAA1-normalized response),Drosophila OR10a; VOC concentration 1 μM,0.00
same,OR10a response (VUAA1-normalized response),Drosophila OR10a; VOC concentration 10 μM,0.0633
same,OR10a response (VUAA1-normalized response),Drosophila OR10a; VOC concentration 100 μM,0.00
same,DF norm AVERAGE OR10a,Drosophila OR10a; [13],0
same,DF norm AVERAGE OR10a,Drosophila OR10a; [14],0.06329
same,DF norm AVERAGE OR10a,Drosophila OR10a; [15],0
Cc1ccc(C)cc1 [p-xylene],activation at 1 µM,Drosophila OR13a; [1],0%
same,activation at 10 µM,Drosophila OR13a; [2],0%
same,activation at 100 µM,Drosophila OR13a; [3],2.5%
same,OR13a response (VUAA1-normalized) at 1 μM,"Drosophila OR13a; OR13a cell line, VOC concentration 1 μM",0.00
same,OR13a response (VUAA1-normalized) at 10 μM,"Drosophila OR13a; OR13a cell line, VOC concentration 10 μM",0.00
same,OR13a response (VUAA1-normalized) at 100 μM,"Drosophila OR13a; OR13a cell line, VOC concentration 100 μM",0.00
same,DF norm AVERAGE OR13a,Drosophila OR13a; [13],0
same,DF norm AVERAGE OR13a,Drosophila OR13a; [14],0
same,DF norm AVERAGE OR13a,Drosophila OR13a; [15],0
same,activation at 1 µM,Drosophila OR10a; [7],0%
same,activation at 10 µM,Drosophila OR10a; [8],0%
same,activation at 100 µM,Drosophila OR10a; [9],6.41%
same,OR10a response (VUAA1-normalized) at 1 μM,"Drosophila OR10a; OR10a cell line, VOC concentration 1 μM",0.00
same,OR10a response (VUAA1-normalized) at 10 μM,"Drosophila OR10a; OR10a cell line, VOC concentration 10 μM",0.00
same,OR10a response (VUAA1-normalized) at 100 μM,"Drosophila OR10a; OR10a cell line, VOC concentration 100 μM",0.0641
same,DF norm AVERAGE OR10a,Drosophila OR10a; [13],0
same,DF norm AVERAGE OR10a,Drosophila OR10a; [14],0
same,DF norm AVERAGE OR10a,Drosophila OR10a; [15],0.06412
